For one data set, the target named is T1, mouse PXR (mPXR) (Mus musculus, UniProt O54915).
T1 sequence (O54915 1-431): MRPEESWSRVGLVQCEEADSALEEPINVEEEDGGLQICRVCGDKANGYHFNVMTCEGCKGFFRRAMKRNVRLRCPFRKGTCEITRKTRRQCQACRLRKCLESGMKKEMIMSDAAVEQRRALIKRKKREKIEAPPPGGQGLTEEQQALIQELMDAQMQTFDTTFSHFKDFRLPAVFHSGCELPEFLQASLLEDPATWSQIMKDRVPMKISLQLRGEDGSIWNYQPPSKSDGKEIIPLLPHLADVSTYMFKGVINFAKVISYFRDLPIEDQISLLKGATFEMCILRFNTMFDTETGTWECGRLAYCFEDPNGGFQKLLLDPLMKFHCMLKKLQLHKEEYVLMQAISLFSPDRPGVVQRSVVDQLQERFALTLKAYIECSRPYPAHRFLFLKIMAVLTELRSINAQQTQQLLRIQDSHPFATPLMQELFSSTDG
The note with it: mPXR-transfected HepG2, 24 h; PCN as 100% control. The method, then: Assays were performed similarly as previously described with minor modifications ([30–32]). HepG2 cells (7.5 × 10^5/well) were plated in six-well tissue culture-treated plates. The following day, cells were co-transfected with pGL3-CYP3A4-luc (2 μg/well), pRL-CMV (200 ng/well) and 100 ng/well of either empty vector (pcDNA3), pcDNA3-FLAG-PXR, pCMV6-mPXR or pGL4.53-PGK-PXR using Lipofectamine 3000 (Thermo Fisher Scientific). Twenty-four hours after transfection, cells were trypsinized and suspended in phenol red-free DMEM (Thermo Fisher Scientific) supplemented with 5% charcoal/dextran-treated FBS (HyClone), and 1 × 10^4 cells/well in 25 μl media were added to white 384-well plates. […] After 24 h, the Dual-Glo Luciferase Assay System (Promega) and EnVision microplate reader (PerkinElmer) were used to measure firefly and Renilla luciferase activities. CMV-driven Renilla luciferase was used as an indicator of general transcriptional modulation by the test compounds and is plotted as fold change (FC) relative to DMSO controls. Assays utilizing pGL4.54[luc2/TK], pGL4.53[luc2/PGK], or pGL4.13[luc2/SV40] were similarly performed and normalized. For the PXR-responsive CYP3A4-luciferase reporter, the measured relative light units (RLU) were normalized for each well using equation (1),
RLUT0901317 represents the measured RLU from wells containing 1 μM T0901317. […]

Another data set deals with T2, PXR LBD (Homo sapiens, UniProt O75469).
T2 construct: GST-PXR LBD protein (cat. # PV4841) were purchased from Thermo Fisher Scientific; purchased Thermo Fisher Scientific PV4841
T2 sequence (O75469 146-433 limits assumed): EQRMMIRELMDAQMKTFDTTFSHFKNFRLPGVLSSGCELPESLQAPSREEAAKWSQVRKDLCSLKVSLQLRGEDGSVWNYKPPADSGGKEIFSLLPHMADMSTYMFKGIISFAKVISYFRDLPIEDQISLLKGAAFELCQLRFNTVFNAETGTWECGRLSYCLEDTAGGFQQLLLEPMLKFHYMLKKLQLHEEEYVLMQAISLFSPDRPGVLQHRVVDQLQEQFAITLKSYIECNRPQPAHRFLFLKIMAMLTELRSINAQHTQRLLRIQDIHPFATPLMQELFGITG
The data set is described as follows: TR-FRET PXR LBD SRC-1 recruitment assay. In kind it is biochemical. The note with it: percent relative to 10 μM T0901317 and DMSO. How it is done:
The TR-FRET PXR LBD SRC-1 recruitment assay measures PXR LBD interaction with a fluorescently labeled SRC-1 peptide (Supplementary Figure S1) and was performed as previously described with minor modifications ([23]). […] FAM-SRC-1 peptide solution (15 μl/well, 133.3 nM in assay buffer) was dispensed into 384-well black low-volume assay plates. An Echo 650 Acoustic Liquid Handler then dispensed 60 nl/well of compound stocks or DMSO. […] The plates were shaken at 900 rpm (80 × g) on an IKA MTS 2/4 digital microtiter shaker for 1 min then centrifuged at 1000 rpm (201 × g) for 30 s in an Eppendorf 5810 centrifuge equipped with an A-4-62 swing-bucket rotor. The plates were protected from light exposure and incubated for 1 h at room temperature (RT). After incubation, the TR-FRET signal from each well was collected with a PHERAstar FS Microplate Reader (BMG Labtech). The measured relative fluorescence units (RFU) were normalized for each well using equation (2),
(In general: In TR-FRET formats the signal depends on donor and acceptor labels being close together.)

“Also recorded” adds a separate entry of the source.

As to `Cc1sc2c(c1C)C(c1ccc(Cl)cc1)=N[C@@H](CC(=O)OC(C)(C)C)c1nnc(C)n1-2` [JQ1, (+)-JQ1], at mouse PXR (mPXR), the “activation of CYP3A4-luciferase reporter in the presence of mPXR” value is listed as “did not activate the CYP3A4-luciferase reporter in the presence of mPXR”. In addition, at PXR LBD, the “recruitment of SRC-1 peptide to purified PXR LBD” value is listed as “induced SRC-1 recruitment; also recorded: JQ1 > birabresib > CPI-203”.

The record behind these values is PMC10899790, “A bromodomain-independent mechanism of gene regulation by the BET inhibitor JQ1: direct activation of nuclear receptor PXR” (Nucleic Acids Research, 2023).
